{"source": "patent US11000627B2", "about": "“Treatment of implants with phosphonic acid compounds” (Nano Bridging Molecules SA, priority 2016, dated 2021)", "key": {"[1]": {"assay": "XPS phosphorus over metal ratio (surface coverage) on Titanium grade 23 dental implants", "type": "physicochemical", "conditions": "sonicated 65° C. 10 min, Metal = Ti2p + Al2s + V2p", "protocol": "A Titanium grade 23 dental implant (bulk composition atomic concentration Titanium 90%, Aluminum 6%, Vanadium 4%; length 11.0 mm, diameter 3.75 mm) was provided with a roughened surface, produced by sand blasting and acid etching according to industry standards. The dental implant was immersed in 40 ml of a 2% (v/v) aqueous solution of deconex 15 PF-x (which is a phosphate free, potassium hydroxide based standard cleaning agent). The solution was placed in an ultrasonic bath (output frequency 30 kHz) and sonicated at 65° C. for 30 min. The implant was removed from the cleaning agent solution and rinsed with water as follows: 2 times with 40 ml, swirling at room temperature; 4 times with 40 ml, sonicating for 2 min at 65° C.; 1 time with 40 ml, swirling at room temperature. The implant was then placed into 5 ml of a 0.7 mM aqueous solution of 1,1,3,3-propane tetraphosphonic acid. The solution was placed in the ultrasonic bath and sonicated at 65° C. for 10 min. The implant was rinsed with water as follows: 2 times with 10 ml, swirling at room temperature; 1 time with 10 ml, sonicating for 2 min at 65° C.; 1 time with 10 ml, swirling at room temperature. The dental implant was dried in a desiccator over P2O5 and under vacuum (ca 20 mbar) for at least 3 hours.\nTen Titanium grade 23 dental implants (bulk composition atomic concentration Titanium 90%, Aluminum 6%, Vanadium 4%; length 11.0 mm, diameter 3.75 mm) were provided with a roughened surface, produced by sand blasting and acid etching according to industry standards. The dental implants were immersed in 400 ml of a 2% (v/v) aqueous solution of deconex 15 PF-x (which is a phosphate free, potassium hydroxide based standard cleaning agent). The solution was placed in an ultrasonic bath (output frequency 30 kHz) and sonicated at 65° C. for 30 min. The implants were removed from the cleaning agent solution and rinsed with water as follows: 2 times with 400 ml, swirling at room temperature; 4 times with 400 ml, sonicating for 2 min at 65° C.; 1 time with 400 ml, swirling at room temperature. The implants were then placed one after the other into 5 ml of a 0.7 mM aqueous solution of 1,1,3,3-propane tetraphosphonic acid. The solution was placed in the ultrasonic bath and sonicated at 65° C. for 10 min. After the treatment with the phosphonic acid, each implant was rinsed with water as follows: 1 time with 10 ml, swirling at room temperature; 1 time with 10 ml, sonicating for 2 min at 65° C.; 1 time with 10 ml, swirling at room temperature. The dental implants were dried in a desiccator over P2O5 and under vacuum (ca 30 mbar) for at least 3 hours.\nA Titanium grade 23 dental implant (bulk composition atomic concentration Titanium 90%, Aluminum 6%, Vanadium 4%; length 13.0 mm, diameter 3.75 mm) was provided with a roughened surface, produced by sand blasting and acid etching according to industry standards. The implant was immersed in 13 ml of a 0.7 mM aqueous solution of 1,1,3,3-propane tetraphosphonic acid. The solution was placed in an ultrasonic bath and sonicated at room temperature for 10 min. The implant was rinsed with water as follows: 1 time with 10 ml, swirling at room temperature; 2 times with 10 ml, sonicating for 1 min at room temperature. The dental implant was dried in a heating oven (ca 70° C.) for at least 1 hour. […]\nFollowing the surface treatment with one phosphonic acid compound as described in Examples 1 to 7 the samples were analyzed by X-ray photoelectron spectroscopy (XPS). […]"}, "[2]": {"assay": "Thickness of phosphonic acid layer by depth profiling using XPS", "type": "physicochemical", "conditions": "for Phosphorus/Metal: Metal = Zr3d + Y3d", "protocol": "Two ceramic discs (yttria stabilized zirconia; length 5.0 mm, diameter 1.0 mm) were provided with a roughened surface, produced by sand blasting and acid etching according to industry standards. The discs were immersed in 80 ml of a 2% (v/v) aqueous solution of deconex 15 PF-x (which is a phosphate free, potassium hydroxide based standard cleaning agent). The solution was placed in an ultrasonic bath (output frequency 30 kHz) and sonicated at 70° C. for 15 min. This step was repeated a second time. The discs were removed from the cleaning agent solution and rinsed with water as follows: 2 times with 90 ml, swirling at room temperature; 3 times with 90 ml, sonicating for 2 min at 70° C. The discs were then placed into 2 glass bottles and immersed into 2.5 ml of a 0.7 mM aqueous solution of 1,1,3,3-propane tetraphosphonic acid. The solutions were placed in the ultrasonic bath and sonicated at 70° C. for 60 min. The discs were rinsed with water as follows: 1 time with 10 ml, swirling at room temperature; 1 time with 10 ml, sonicating for 2 min at 65° C.; 1 time with 10 ml, swirling at room temperature. The discs were dried in a desiccator over P2O5 and under vacuum (ca 20 mbar) for at least 3 hours.\nFollowing the surface treatment, the thickness of the phosphonic acid layer was determined by depth profiling using XPS. Ion gun sputtering cycles were alternated with XPS measurements. An ion gun was used to etch the material for a defined period of time. Once turned off, XPS spectra were acquired. The depth profiles were performed using a Kratos AXIS Nova high resolution spectrometer. An Al-standard source was used for the measurement. Depth profile sputtering was performed by scanning a 3.8 keV Ar+ beam at 100 μA extractor current over an area of 4 mm×4 mm. The sputter rate of Ta2O5 standards measured under these conditions (6 nm/min) was used to convert sputter time in approximate sputter depth. Spectra were measured after the following sputtering times: 0, 5, 10, 15, 20, 30, 40, 60 sec. Spectra were peak fitted after background subtraction by assuming a Gaussian/Lorentzian (90-70/10-30) peak shape. All peaks between 0 eV to 1200 eV were inspected.\nThe phosphorus peak was measured at % atomic concentrations close to the detection limit (0.5%) after 10 seconds of sputtering."}}, "note": "Marks after values point to notes of the source that are not given here."}
{"smiles": "O=P(O)(O)C(CC(P(=O)(O)O)P(=O)(O)O)P(=O)(O)O", "note": "[1,1,3,3-propane tetraphosphonic acid]", "values": [{"measurement": "Phosphorus/Metal", "setting": "[1]; 0.7 mM", "result": 0.19}, {"measurement": "Phosphorus/Metal", "setting": "[1]; 2 mM", "result": 0.18}, {"measurement": "Phosphorus/Metal", "setting": "[1]; 3.5 mM", "result": 0.17}, {"measurement": "Phosphorus/Metal", "setting": "[1]; 5 mM", "result": 0.18}, {"measurement": "Phosphorus/Metal", "setting": "[1]; 7 mM", "result": 0.18}, {"measurement": "thickness of monolayer", "setting": "[2]; 0.7 mM, sonicated 70° C. 60 min, sputter depth from Ta2O5 standard rate", "result": "about 1 nm"}, {"measurement": "Phosphorus/Metal", "setting": "[2]; sputtering 0 sec, depth 0 nm", "result": "0.18^b"}, {"measurement": "Phosphorus/Metal", "setting": "[2]; sputtering 5 sec, depth 0.5 nm", "result": "0.03^b"}, {"measurement": "Phosphorus/Metal", "setting": "[2]; sputtering 10 sec, depth 1 nm", "result": "0.02^b"}, {"measurement": "Phosphorus/Metal", "setting": "[2]; sputtering 15 sec, depth 1.5 nm", "result": "0.02^b"}, {"measurement": "Phosphorus/Metal", "setting": "[2]; sputtering 20 sec, depth 2 nm", "result": "0.01^b"}, {"measurement": "Phosphorus/Metal", "setting": "[2]; sputtering 30 sec, depth 3 nm", "result": "0.02^b"}, {"measurement": "Phosphorus/Metal", "setting": "[2]; sputtering 40 sec, depth 4 nm", "result": "0.01^b"}, {"measurement": "Phosphorus/Metal", "setting": "[2]; sputtering 60 sec, depth 6 nm", "result": "0.00^b"}]}
